Data taken from ChEMBL document CHEMBL4251673, “Structurally Diverse Diterpenoids from Sandwithia guyanensis” (J Nat Prod, 2018).

Key:
[1] = Selectivity index, ratio of CC50 for African green monkey Vero cells to EC50 for Chikungunya virus Indian Ocean 889 infected in African green monkey Vero cells; format: toxicity; settings: read-out: Ratio CC50/EC50
Chikungunya virus = assay: Antiviral activity against Chikungunya virus Indian Ocean 889 infected in African green monkey Vero cells assessed as inhibition of virus-induced cytopathic effect after 7 days by MTS method; format: functional, organism-based; settings: Indian Ocean 889, Vero, 168 h

In the case of `C/C1=C\[C@@H]2[C@H](CC[C@]3(C)O[C@H]3C3=C(C1=O)[C@@H](O)[C@H](C)C3=O)C2(C)C`, the selectivity ratio [1] is reported as 1.92 and the EC50 (Chikungunya virus) is reported as 14 µM.
